Assay results as given in US9757375B2, “Compounds that inhibit human DNA ligases and methods of treating cancer” (University of Maryland, Baltimore, priority 2007, dated 2017).
Entries after “also recorded” stand apart in the source; their conditions may differ. Where two headings read alike, the source gives them in different places.

What was measured:
[1] = target: human DNA ligase IV (Homo sapiens, UniProt P49917); assay: High-throughput fluorescence-based DNA joining (ligation) assay; type: biochemical; conditions: for % activity Inhibition hLigIV 100 uM: Ø not defined (0 in Table 5A)
Description: (§1) The method for screening compounds comprises testing the compound for the ability to inhibit human DNA ligases I, III and IV with a high throughput fluorescence-based ligation assay. In this assay, phosphodiester bond formation covalently links together two oligonucleotides, one of which is a fluorescent donor AF488 that is 11 nucleotides from the 3′ terminus and the other contains a fluorescence acceptor and quencher, BHQ1 that is 15 nucleotides from the 5′ terminus. When these oligonucleotides are present in separate duplexes and in the same nicked or intact duplex, there is no significant quenching of fluorescence because the donor and acceptor are too far apart. As single-strands neither the AF488 oligonucleotide nor the BHQ1 oligonucleotides have significant secondary structure. However, when these oligonucleotides are ligated together, the resultant single strand forms a stable hairpin structure, in which the AF488 and BHQ1 groups are very close together, resulting in efficient intra-molecular quenching of fluorescence. Thus, in the DNA joining assay, the DNA substrate is denatured after incubation with the DNA ligase and then renatured in the presence of a 20-fold excess of an oligonucleotide that is identical to the ligated strand containing the fluorescent door and acceptor except that it lacks these modifications. Using this assay, DNA joining, which results in reduced fluorescence at 518 nm, can be measured rapidly, quantitatively and with high-throughput using a fluorescence plate reader.
(§2) Applicants developed a novel high throughput fluorescence-based ligation assay by modifying the sequence of the oligos to optimize hairpin formation by the single strand ligated product of the high throughput fluorescence-based ligation assay of Chen et al (22). […] Compound stock solutions, which were 10 mM in 0.5% DMSO, were diluted in 0.5% DMSO. Human DNA ligases I and III were assayed with a nicked DNA substrate whereas as the substrate for human DNA ligase IV was two oligonucleotide duplexes with short complementary single strand ends.

[2] = target: T1, human DNA ligase III (Homo sapiens, UniProt P49916); assay: as above; type: biochemical
T1 sequence (P49916 1-862 isoform P49916-4): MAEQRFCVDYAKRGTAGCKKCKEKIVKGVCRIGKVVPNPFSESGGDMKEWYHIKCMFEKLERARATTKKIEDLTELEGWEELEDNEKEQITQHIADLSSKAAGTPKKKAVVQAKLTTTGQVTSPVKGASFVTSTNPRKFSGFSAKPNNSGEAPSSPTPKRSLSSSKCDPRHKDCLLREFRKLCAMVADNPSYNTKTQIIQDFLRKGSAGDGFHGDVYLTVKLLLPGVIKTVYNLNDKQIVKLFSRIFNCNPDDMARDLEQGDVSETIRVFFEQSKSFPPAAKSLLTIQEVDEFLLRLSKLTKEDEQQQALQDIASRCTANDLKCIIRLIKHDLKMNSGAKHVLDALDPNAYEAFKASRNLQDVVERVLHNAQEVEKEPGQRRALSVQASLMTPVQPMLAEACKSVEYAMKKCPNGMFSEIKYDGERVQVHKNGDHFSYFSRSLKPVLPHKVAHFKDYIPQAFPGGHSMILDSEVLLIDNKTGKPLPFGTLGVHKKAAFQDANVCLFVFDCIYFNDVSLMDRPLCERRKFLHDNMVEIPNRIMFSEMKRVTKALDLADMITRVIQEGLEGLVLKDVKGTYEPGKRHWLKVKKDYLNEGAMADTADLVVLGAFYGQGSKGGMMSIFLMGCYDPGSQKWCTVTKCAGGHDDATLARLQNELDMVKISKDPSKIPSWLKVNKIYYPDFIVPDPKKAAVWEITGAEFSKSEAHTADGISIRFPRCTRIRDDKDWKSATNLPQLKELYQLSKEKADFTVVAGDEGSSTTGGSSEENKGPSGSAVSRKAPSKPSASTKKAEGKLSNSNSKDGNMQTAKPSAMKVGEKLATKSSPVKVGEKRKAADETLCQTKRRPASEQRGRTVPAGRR
Description: as §1, §2

[3] = target: T2, hLigI (Homo sapiens, UniProt P18858); assay: as above; type: biochemical; conditions: for inhibition of hLigI (DNA ligase I), in words: in vitro screen, 100 μmol/L, the 15 hLigI inhibitors inhibited by >50%
T2 construct: made in house
Description: (§3) Candidate ligase inhibitors identified by CADD were assayed for their ability to inhibit hLigI and T4 DNA ligase using a high-throughput, fluorescence energy transfer-based DNA joining assay (22). Duplicate reactions (30 μL) containing 10 pmol of nicked DNA substrate and either 0.25 pmol of hLigI or 10 units of T4 DNA ligase were incubated in the presence or absence of 100 μmol/L of the putative inhibitor. DNA binding by the candidate DNA ligase inhibitors was measured by displacement of ethidium bromide from DNA as previously described (30).
as §1, §2

[4] = target: T3, T4 DNA ligase (Enterobacteria phage T4, UniProt P00970); assay: High-throughput fluorescence-based DNA joining assay, non-specific inhibitor control; type: biochemical, bacteriophage T4
T3 construct: purchased NEB
T3 sequence (P00970 1-487): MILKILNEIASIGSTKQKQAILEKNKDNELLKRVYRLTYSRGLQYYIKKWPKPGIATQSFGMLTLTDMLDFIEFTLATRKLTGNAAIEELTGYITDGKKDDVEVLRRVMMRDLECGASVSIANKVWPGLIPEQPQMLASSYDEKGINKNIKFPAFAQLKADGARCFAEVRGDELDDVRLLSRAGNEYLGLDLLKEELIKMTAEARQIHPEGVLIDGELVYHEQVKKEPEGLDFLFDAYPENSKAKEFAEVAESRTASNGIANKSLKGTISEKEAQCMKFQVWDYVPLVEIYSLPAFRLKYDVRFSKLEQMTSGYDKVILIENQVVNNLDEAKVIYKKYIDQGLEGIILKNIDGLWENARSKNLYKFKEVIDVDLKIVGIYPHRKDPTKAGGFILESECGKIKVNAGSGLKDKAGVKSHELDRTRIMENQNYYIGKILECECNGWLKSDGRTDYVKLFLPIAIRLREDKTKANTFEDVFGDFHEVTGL
Description: as §3
In addition, to identify compounds that may be non-specific inhibitors of DNA joining, the 192 compounds were also assayed for their ability to inhibit bacteriophage T4 DNA ligase, an enzyme that utilizes the same reaction mechanism as hLigI, has similar adenylation and OB-fold domains but lacks a DBD domain. (6) Although this is also an ATP-dependent DNA ligase, it lacks the domain containing the binding pocket targeted by the in silico screen. Compounds that inhibited T4 DNA ligase were eliminated as non-specific inhibitors that most likely bind to the DNA.

[5] = 100 uM, Ø not defined (0 in Table 5A), read-out: % activity Inhibition hLigIII 100 uM
[6] = 100 uM, read-out: % activity Inhibition hLigI 100 uM
[7] = read-out: % activity Inhibition LigT4 100 uM
[8] = read-out: % of inhibition @ 100 μM (Helen's data) hLigIV
[9] = read-out: % of inhibition @ 100 μM (Helen's data) hLigIII
[10] = 100 μM, read-out: % of inhibition @ 100 μM (Helen's data) hLigI
[11] = 100 uM, Ø not defined (0 in Table 5A)

T2 sequence (P18858 whole entry): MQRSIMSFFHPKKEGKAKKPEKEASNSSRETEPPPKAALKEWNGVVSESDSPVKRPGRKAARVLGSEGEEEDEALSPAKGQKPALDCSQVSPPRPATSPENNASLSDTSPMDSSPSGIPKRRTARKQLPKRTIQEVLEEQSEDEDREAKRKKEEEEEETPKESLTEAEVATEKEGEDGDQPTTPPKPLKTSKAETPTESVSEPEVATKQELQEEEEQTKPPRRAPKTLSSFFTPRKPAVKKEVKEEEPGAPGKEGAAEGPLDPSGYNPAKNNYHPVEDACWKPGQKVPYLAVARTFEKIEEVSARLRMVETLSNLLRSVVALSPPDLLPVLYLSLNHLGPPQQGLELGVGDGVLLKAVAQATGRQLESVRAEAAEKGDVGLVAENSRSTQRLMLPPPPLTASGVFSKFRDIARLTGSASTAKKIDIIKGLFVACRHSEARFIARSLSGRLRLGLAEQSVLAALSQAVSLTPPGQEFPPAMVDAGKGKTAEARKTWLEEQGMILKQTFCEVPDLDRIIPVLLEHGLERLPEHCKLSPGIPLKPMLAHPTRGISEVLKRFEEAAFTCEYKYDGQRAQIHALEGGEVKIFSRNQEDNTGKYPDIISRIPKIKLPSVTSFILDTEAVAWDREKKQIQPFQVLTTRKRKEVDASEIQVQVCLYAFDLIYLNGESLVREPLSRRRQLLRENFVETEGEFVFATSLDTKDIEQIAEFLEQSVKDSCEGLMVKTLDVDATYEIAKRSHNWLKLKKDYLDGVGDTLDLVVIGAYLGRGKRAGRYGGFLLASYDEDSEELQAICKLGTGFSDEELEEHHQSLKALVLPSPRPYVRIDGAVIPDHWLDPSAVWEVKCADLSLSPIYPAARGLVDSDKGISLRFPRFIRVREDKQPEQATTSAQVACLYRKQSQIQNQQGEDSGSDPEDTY
Sequence of human DNA ligase IV (P49917 whole entry): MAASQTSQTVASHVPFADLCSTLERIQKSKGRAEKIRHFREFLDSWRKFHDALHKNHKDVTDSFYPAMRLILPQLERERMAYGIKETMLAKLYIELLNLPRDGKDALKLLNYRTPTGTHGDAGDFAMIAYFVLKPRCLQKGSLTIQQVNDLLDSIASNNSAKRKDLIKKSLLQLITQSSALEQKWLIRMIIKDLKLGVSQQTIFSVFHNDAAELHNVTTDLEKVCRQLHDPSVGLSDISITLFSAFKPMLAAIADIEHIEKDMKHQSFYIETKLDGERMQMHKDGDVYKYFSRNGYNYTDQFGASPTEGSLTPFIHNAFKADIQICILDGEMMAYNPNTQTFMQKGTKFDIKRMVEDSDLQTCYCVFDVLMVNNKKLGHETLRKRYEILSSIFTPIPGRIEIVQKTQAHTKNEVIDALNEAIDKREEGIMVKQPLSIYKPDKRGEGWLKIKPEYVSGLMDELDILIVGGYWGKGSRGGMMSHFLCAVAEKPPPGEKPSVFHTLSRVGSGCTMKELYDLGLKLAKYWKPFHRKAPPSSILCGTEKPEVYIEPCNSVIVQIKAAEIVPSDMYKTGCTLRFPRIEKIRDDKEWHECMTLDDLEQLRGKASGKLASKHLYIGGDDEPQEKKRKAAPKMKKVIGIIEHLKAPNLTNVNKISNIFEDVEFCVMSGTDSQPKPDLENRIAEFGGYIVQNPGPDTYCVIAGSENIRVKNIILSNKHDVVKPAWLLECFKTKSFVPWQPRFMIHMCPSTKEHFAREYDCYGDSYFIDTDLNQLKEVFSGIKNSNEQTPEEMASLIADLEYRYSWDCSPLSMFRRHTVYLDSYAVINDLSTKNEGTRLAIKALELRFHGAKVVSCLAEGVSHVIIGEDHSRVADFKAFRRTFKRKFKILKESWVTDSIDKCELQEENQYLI
Sequence of human DNA ligase IV (Q13426 whole entry partner): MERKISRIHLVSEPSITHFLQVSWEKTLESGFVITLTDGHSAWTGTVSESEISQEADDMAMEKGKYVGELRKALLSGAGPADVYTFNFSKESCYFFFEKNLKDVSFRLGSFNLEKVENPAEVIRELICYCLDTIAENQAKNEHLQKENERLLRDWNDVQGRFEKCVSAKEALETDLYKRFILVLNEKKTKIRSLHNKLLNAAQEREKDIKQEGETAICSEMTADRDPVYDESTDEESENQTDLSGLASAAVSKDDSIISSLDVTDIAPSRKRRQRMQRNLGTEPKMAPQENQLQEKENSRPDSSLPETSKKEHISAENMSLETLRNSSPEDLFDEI

Row | SMILES | % activity Inhibition hLigIV 100 uM [1] | inhibition at 100 µM [3, 6] | inhibition at 100 µM [4, 7] | % activity Inhibition hLigIII 100 uM [2, 11] | also measured
1 | COc1ccc(C(CC(=O)O)NC(=O)c2ccco2)cc1 (stereo not drawn) [Compound 207] | Ø | 20.7 ± 19% | 10 ± 2% |  | inhibition at 100 µM [2, 5]: 25.8 ± 10.7%
2 | Sc1nccc(-c2cccnc2)n1 [Compound 130] |  |  |  |  | inhibition at 100 µM [1, 8]: < 20%; inhibition at 100 µM [2, 9]: < 20%; inhibition at 100 µM [3, 10]: < 20%
3 | COC(=O)c1ccc(-n2nnnc2SCC(=O)c2ccc(O)c(O)c2)cc1 [Compound 32] |  |  |  |  | inhibition of hLigI (DNA ligase I), in words [3]: inhibited hLigI
4 | Oc1nn(-c2ccc(Br)cc2)cc1Br [Compound 221] |  |  |  |  | inhibition at 100 µM [1, 8]: < 20%; inhibition at 100 µM [2, 9]: < 20%; inhibition at 100 µM [3, 10]: > 20%
5 | COC(=O)c1scc(Br)c1O [Compound 124] |  |  |  |  | inhibition at 100 µM [1, 8]: < 20%; inhibition at 100 µM [2, 9]: < 20%; inhibition at 100 µM [3, 10]: < 20%
6 | O=C(O)CN1C(=O)c2ccc([N+](=O)[O-])cc2C1=O [Compound 90] | Ø | 20.7 ± 4.8% | 1.6 ± 3.1% | Ø | 
7 | O=C(O)c1ccc([N+](=O)[O-])c(C(=O)O)n1 [Compound 212] |  |  |  |  | inhibition at 100 µM [1, 8]: < 20%; inhibition at 100 µM [2, 9]: < 20%; inhibition at 100 µM [3, 10]: < 20%
8 | O=C(O)Cc1ccccc1S(=O)(=O)c1ccc(Cl)cc1 [Compound 193] | Ø |  |  | Ø | % of inhibition @ 100 μM (Helen's data) hLigIV [1]: NI (NI- no inhibition); % of inhibition @ 100 μM (Helen's data) hLigIII ([2]; 100 μM): NI (NI- no inhibition); % activity Inhibition hLigI 100 uM ([3]; 100 uM): 28.2 ± 34.4%; % of inhibition @ 100 μM (Helen's data) hLigI ([3]; 100 μM): NI (NI- no inhibition); % activity Inhibition LigT4 100 uM [4]: 0.44 ± 2.1%
9 | O=C(O)c1ccc(Sc2ccccn2)c([N+](=O)[O-])c1 [Compound 47] | Ø | 24.2 ± 4.3% | 2.2 ± 0.7% | Ø | 
10 | O=C(O)c1ccc2nccnc2c1 [Compound 175] |  |  |  |  | inhibition of hLigI (DNA ligase I), in words [3]: inhibited hLigI
11 | COC(=O)c1ccc(S(=O)(=O)O)o1 [Compound 55] | Ø |  |  | Ø | % activity Inhibition hLigI 100 uM ([3]; 100 uM): 7.5 ± 9.3%; % activity Inhibition LigT4 100 uM [4]: 0.58 ± 3.1%
12 | COc1cccc(Cn2nnc(C(=O)O)c2C(=O)O)c1 [Compound 103] | Ø | 23.1 ± 1.8% | 6.2 ± 4.3% | Ø | 
13 | O=C(O)c1ccc(C(=O)c2ccc3c(c2)C(=O)N(CCO)C3=O)cc1 [Compound 46] | Ø |  |  |  | inhibition at 100 µM [2, 5]: 21.6 ± 8.56%; % activity Inhibition hLigI 100 uM ([3]; 100 uM): Ø
14 | O=C1Nc2c(C(=O)O)cccc2C1=O [Compound 25] | Ø | 59.3 ± 7.5% | 12.9 ± 6.3% |  | inhibition at 100 µM ([1]; read-out: In vitro % inhib hLigIV 100): 0%; inhibition at 100 µM ([2]; 100 μM, read-out: In vitro % inhib hLigIII 100): 73 ± 5%; inhibition at 100 µM [2, 5]: 72.8 ± 4.8%; inhibition of human DNA ligase III, in words ([2]; in vitro screen): specifically inhibit DNA ligases I and III; inhibition at 100 µM ([3]; 100 μM, read-out: In vitro % inhib hLigI 100): 59 ± 8%; inhibition of hLigI (DNA ligase I), in words [3]: inhibited hLigI; also recorded: specifically inhibit DNA ligases I and III; inhibition at 100 µM ([4]; 100 μM, read-out: In vitro % inhib T4 100): 13 ± 6%
15 | O=C(NN=Cc1ccc(S(=O)(=O)O)o1)c1ccccc1O [Compound 79] |  |  |  |  | % of inhibition @ 100 μM (Helen's data) hLigIV [1]: NI (NI- no inhibition); % of inhibition @ 100 μM (Helen's data) hLigIII ([2]; 100 μM): NI (NI- no inhibition); % of inhibition @ 100 μM (Helen's data) hLigI ([3]; 100 μM): NI (NI- no inhibition)
16 | CCC(Nc1ncnc2ccccc12)C(=O)O (stereo not drawn) [Compound 51] | Ø | 24.3 ± 13.5% | 0% | Ø | 
17 | N#CCSc1nnc(SCC#N)s1 [Compound 123] |  |  |  |  | inhibition of hLigI (DNA ligase I), in words [3]: inhibited hLigI
18 | Nc1nonc1C(=O)O [Compound 54] | Ø | 32.2 ± 10.5% | 6.9 ± 0.45% | Ø | 
19 | O=C(O)c1ccc(C(=O)O)c(C(=O)O)c1 [Compound 53] | Ø | 36.4 ± 4.7% | 3.7 ± 4.8% | Ø | 
20 | Cc1[nH]c2ccc(C(=O)O)cc2c1CC(=O)O [Compound 35] | Ø | 38.7% | 3.7 ± 2.3% | Ø | 
21 | O=C(O)Cn1nnnc1-c1ccc(F)cc1 [Compound 37] | Ø | 25.2 ± 14.1% | 3.7% | Ø | 
